Source: paper PMC3530466, “Recombinant Expression of Margatoxin and Agitoxin-2 in Pichia pastoris: An Efficient Method for Production of KV1.3 Channel Blockers” (PLoS ONE, 2012)
Bridge positions count the residues as written; N and C are the ends. Ends that are not written are not given here.

What was measured:
KV1.3 = conditions: cited from earlier work; for potency of native toxin on KV1.3: native toxins, ref [31]; for block of KV1.3 channels: ref [22], [30], [31]
Description: Voltage-gated potassium (KV) channels are expressed in a wide range of cell types and tissues where they play key roles in physiological processes such as cell excitability, muscle contraction, and regulation of cardiac function. KV channels are composed of four α subunits that together form a functional channel. There are […] subfamilies of KV channels, with KV1.3 being one of eight subtypes in the KV1.x subfamily. […] We therefore measured the ability of rAgTx2 and rMgTx to block mouse KV1.3 (mKV1.3) and mouse KV1.1 (mKV1.1) channels stably expressed in L929 cells. […] The recombinant rAgTx2 and rMgTx inhibited mKV1.3 with simi ... || KV channels have diverse physiological functions; they play important roles in cell excitability, muscle contraction, regulation of neuronal and cardiac electrical functions, and propagation of action potentials. […] This has led to the hypothesis that compounds that selectively target KV1.3 channels could be used to treat autoimmune diseases. Consistent with this idea, ... || (+ 1 further places)

[1] = target: T1, mouse KV1.1 (mKV1.1) channels stably expressed in L929 cells (Mus musculus, UniProt P16388); test: Inhibition of mKV1.1 currents, whole-cell patch clamp; assay type: cell-based; conditions: room temperature, 200-ms pulses from -80 mV to 40 mV every 30 s, Hill fit to reduction of peak current at 40 mV, each data point mean of 3–5 determinations
T1 construct: expressed in transfected cells
T1 sequence (P16388 whole entry): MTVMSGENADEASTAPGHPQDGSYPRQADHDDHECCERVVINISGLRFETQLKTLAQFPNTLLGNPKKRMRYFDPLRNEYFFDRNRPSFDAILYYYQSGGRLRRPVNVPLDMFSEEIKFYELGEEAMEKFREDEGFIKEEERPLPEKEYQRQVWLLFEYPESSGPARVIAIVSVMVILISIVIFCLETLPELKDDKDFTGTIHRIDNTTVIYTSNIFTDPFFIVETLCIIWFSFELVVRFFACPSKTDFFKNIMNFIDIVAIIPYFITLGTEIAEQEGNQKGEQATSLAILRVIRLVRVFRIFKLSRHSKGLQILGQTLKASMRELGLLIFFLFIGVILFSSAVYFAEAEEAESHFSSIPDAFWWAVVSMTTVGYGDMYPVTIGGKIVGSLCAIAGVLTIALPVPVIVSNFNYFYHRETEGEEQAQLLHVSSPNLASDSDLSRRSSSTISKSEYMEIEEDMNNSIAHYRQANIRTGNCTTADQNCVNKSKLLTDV
Experimental: (§1) L929 mouse fibroblast cells stably expressing mouse KV1.1 or mouse KV1.3 channels were kind gifts from Dr. George Chandy (University of California, Irvine). The cells were maintained in DMEM medium (Invitrogen, Carlsbad, CA, USA) supplemented with 10 IU/ml penicillin, 0.1 mg/ml streptomycin, 2 mM L-glutamine, 10% heat-inactivated fetal bovine serum, and 0.5 mg/ml G418 (EMD Chemicals, Gibbstown, NJ, USA). Freshly prepared buffy coats were purchased from the Gulf Coast Regional Blood Center (Houston, TX, USA) under a Baylor College of Medicine Institutional Review Board-approved protocol. Mononuclear cells were isolated from the buffy coats using Histopaque-1077 gradients (Sigma, St Louis, MI, USA) and used immediately or stored frozen in liquid nitrogen.
(§2) Experiments were conducted at room temperature using the whole-cell patch-clamp technique, as described previously. […] The bath solution contained (in mM): 160 NaCl, 4.5 KCl, 2 CaCl2, 1 MgCl2, 10 HEPES, pH 7.2, 300 mOsm. KV channel currents were elicited every 30 s by 200-ms depolarizing pulses from a holding potential of –80 mV to 40 mV. K d values and Hill coefficients were determined by fitting the Hill equation to the reduction of peak current measured at 40 mV.

[2] = target: T2, mouse KV1.3 (mKV1.3) channels stably expressed in L929 cells (Mus musculus, UniProt P16390); test: Inhibition of mKV1.3 currents, whole-cell patch clamp; assay type: cell-based; conditions: room temperature, each data point mean of 3–5 determinations
T2 construct: expressed in transfected cells
T2 sequence (P16390 whole entry): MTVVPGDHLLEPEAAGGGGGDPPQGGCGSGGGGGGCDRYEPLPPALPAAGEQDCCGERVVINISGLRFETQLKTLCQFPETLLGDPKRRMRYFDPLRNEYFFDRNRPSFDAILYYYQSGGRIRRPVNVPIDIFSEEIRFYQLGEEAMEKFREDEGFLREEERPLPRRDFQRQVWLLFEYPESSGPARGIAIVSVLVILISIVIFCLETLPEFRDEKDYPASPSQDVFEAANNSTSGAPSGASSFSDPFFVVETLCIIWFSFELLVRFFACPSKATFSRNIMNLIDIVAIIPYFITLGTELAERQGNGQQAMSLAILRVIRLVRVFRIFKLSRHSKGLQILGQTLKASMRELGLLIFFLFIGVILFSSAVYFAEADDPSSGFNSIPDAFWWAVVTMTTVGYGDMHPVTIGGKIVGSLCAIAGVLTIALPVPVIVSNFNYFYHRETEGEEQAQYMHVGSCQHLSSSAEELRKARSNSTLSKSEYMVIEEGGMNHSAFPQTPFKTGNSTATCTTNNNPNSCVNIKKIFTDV
Experimental: as §1, §2

human T lymphocytes = test: Proliferation of T lymphocytes, [3H] thymidine incorporation; assay type: cell-based; conditions: freshly-isolated human T lymphocytes, 60 ng/ml anti-CD3 antibody (OKT3), pre-incubated 45 min at 37°C, cultured 72 h, [3H] thymidine last 16–18 h; three independent experiments with cells from different donors
Experimental: as §1
Mononuclear cells (10^6/ml) were plated into 96-well microplates and pre-incubated with peptidic KV1.3 blockers for 45 min at 37°C in RPMI medium (Invitrogen) supplemented with 100 IU/ml penicillin, 0.1 mg/ml streptomycin, 2 mM L-glutamine, 1 mM sodium pyruvate, 1% non-essential amino acids, 1% RPMI vitamins, […] β-mercaptoethanol, and 1% heat-inactivated fetal bovine serum. […] [^3H] thymidine incorporation into the DNA of proliferating cells was measured using a β-scintillation counter (Beckman Coulter, Brea, CA, USA).

T lymphocytes = conditions: native toxins; ref [33], [34]; read-out: IC50 range previously described, T lymphocyte proliferation; cited from earlier work
Experimental: We next tested the ability of each recombinant peptides to block the proliferation of freshly-isolated human T lymphocytes, which are sensitive to KV1.3 channel blockers. […] These concentrations are within the range previously described for MgTx (∼5 nM) and AgTx2 (>5 nM), [34]. Thus the biological activities of rAgTx2 and rMgTx produced in P.pastoris are similar to the native toxins.

human KV1.3 channel = conditions: by blocking the central ion-conducting pore; ref [21], [22], [43]; cited from earlier work
Description: Some α-KTxs are of significant interest because they potently block the human KV1.3 channel. […] However, despite their similar 3D fold and high sequence homology, the affinity of α-KTx toxins for KV1.3 varies over six orders of magnitude from picomolar to micromolar. Moreover, many of these toxins inhibit a number of different subtypes KV channels with high affinity, an undesirable attribute for peptides being considered for therapeutic use due to the ...

KV1.1 = conditions: ref [22], [30], [31]; cited from earlier work
Description: We therefore measured the ability of rAgTx2 and rMgTx to block mouse KV1.3 (mKV1.3) and mouse KV1.1 (mKV1.1) channels stably expressed in L929 cells. […] The recombinant rAgTx2 and rMgTx inhibited mKV1.3 with simi ...

[3] = system: acid sensing ion channel 1a; conditions: ref [49]; cited from earlier work
Description: Recombinant production is the most cost-effective method for producing disulfide-rich peptides. The most common host for heterologous expression of venom peptides is E. coli, [47] but this often necessitates oxidative refolding of the peptides as the redox environment of the E. coli cytoplasm is not favorable for disulfide-bond formation. Higher yields of correctly folded toxin can often be obtained by exporting the peptides into periplasm of E. coli, where the cellular machinery for disulfide-bond formation is located [17]–[19]; however, the overall yield of recombi ...

[4] = 200-ms pulses from -80 mV to 40 mV every 30 s, Hill fit to reduction of peak current at 40 mV

## BmKTX: native peptide, parent of ADWX-1 (VGINVKCKHSGQCLKPCKDAGMRFGKCINGKCDCTPK; ends and bridges not checked; cysteine pairing not given here; UniProt Q9NII7 23-59, looked up)
KV1.3; ref [44]
  IC50: 0.15 nM

## CC[C@H](C)[C@@H]1NC(=O)[C@@H]2CSSC[C@@H]3NC(=O)[C@H](CCCCN)NC(=O)[C@H](CCCNC(=N)N)NC(=O)[C@H](CC(N)=O)NC(=O)[C@H](CCSC)NC(=O)[C@H](CSSC[C@H](NC(=O)[C@H](CO)NC(=O)[C@@H](NC(=O)[C@H](CC(N)=O)NC(=O)[C@@H](NC(=O)[C@@H]4CCCN4C(=O)[C@@H](NC(=O)CNC(=O)[C@H](Cc4c[nH]cn4)NC(=O)[C@H](Cc4c[nH]cn4)NC(=O)[C@H](Cc4c[nH]cn4)NC(=O)[C@H](Cc4c[nH]cn4)NC(=O)[C@H](Cc4c[nH]cn4)NC(=O)[C@H](Cc4c[nH]cn4)NC(=O)[C@H](Cc4ccccc4)NC(=O)[C@@H](N)CCC(=O)O)C(C)C)[C@@H](C)CC)C(C)C)C(=O)N[C@@H]([C@@H](C)O)C(=O)NCC(=O)N[C@@H](CO)C(=O)N4CCC[C@H]4C(=O)N[C@@H](CCC(N)=O)C(=O)N2)NC(=O)[C@H](CCCCN)NC(=O)CNC(=O)[C@H](Cc2ccccc2)NC(=O)[C@H](CCCNC(=N)N)NC(=O)[C@H](CCSC)NC(=O)CNC(=O)[C@H](C)NC(=O)[C@H](CC(=O)O)NC(=O)[C@H](CCCCN)NC(=O)[C@H](CSSC[C@@H](C(=O)N[C@H](C(=O)N2CCC[C@H]2C(=O)N[C@@H](CCCCN)C(=O)O)[C@@H](C)O)NC(=O)[C@H](Cc2c[nH]cn2)NC3=O)NC(=O)[C@@H]2CCCN2C(=O)[C@H](CCCCN)NC1=O [rAgTx2, recombinant agitoxin-2]
[1]
  IC50: 0.144 ± 0.03 nM
[2]; [4]
  IC50: 0.201 ± 0.039 nM
Human T lymphocytes
  IC50: ~40 nM

## margatoxin (TIINVKCTSPKQCLPPCKAQFGQSAGAKCMNGKCKCYPH; UniProt P40755 1-39, looked up) [MgTx]
T lymphocytes
  IC50: ~5 nM
KV1.3
  potency of native toxin on KV1.3: 30−100 pM
  block of KV1.3 channels: picomolar concentrations
Human KV1.3 channel
  inhibition of KV1.3: potently inhibit KV1.3
KV1.1
  block of KV1.1 channels: picomolar concentrations

## EFHHHHHHTIINVKCTSPKQCLPPCKAQFGQSAGAACMNGKCKCYPH (disulfide 15-37, 21-42, 25-44) [rMgTx-K28A]
[2]; K28A mutant, Hill fit to peak current at 40 mV
  IC50: 216 ± 24 nM

## agitoxin-2 [AgTx2]
T lymphocytes
  IC50: > 5 nM
KV1.3
  potency of native toxin on KV1.3: 200 pM
  block of KV1.3 channels: picomolar concentrations
Human KV1.3 channel
  inhibition of KV1.3: potently inhibit KV1.3
KV1.1
  block of KV1.1 channels: picomolar concentrations

## EFHHHHHHTIINVKCTSPKQCLPPCKAQFGQSAGAKCMNGKCKCYPH (disulfide 15-37, 21-42, 25-44) [rMgTx, recombinant margatoxin]
[1]
  IC50: 0.396 ± 0.041 nM
[2]; [4]
  IC50: 0.097 ± 0.003 nM
Human T lymphocytes
  IC50: ~6 nM

## PcTx1 (EDCIPKWKGCVNRHGDCCEGLECWKRRRSFEVCVPKTPKT; ends and bridges not checked; cysteine pairing not given here; UniProt P60514 1-40, looked up)
[3]
  block of acid sensing ion channel 1a: potent blocker
